Measured values reported in US20100179153A1, “Bicyclic S1P Receptor Modulators” (priority 2007, published 2010).

Key:
Type in all cases: biochemical
human S1P1 receptor = biological target: T1, human S1P1 receptor (Homo sapiens, UniProt P21453); assay: 35S-GTPγS binding assay (SPA), S1P1; conditions: membrane protein from transfected CHO cells
T1 construct: expressed in transfected cells; host or cells: CHO-K1 (ATCC CCL 61); RH7777 may also be used
Procedure: (§1) Test 1: ^355-GTPγS Binding Assay
(§2) The S1P receptor modulating properties of an agent of the invention are tested on the human S1P1, S1P2, S1P3, S1P4 and S1P5, respectively, receptor subtypes. The functional receptor activation is assessed by quantifying the compound-induced ^35S-GTPγS binding to membrane protein prepared from transfected heterologous cells stably expressing the appropriate S1P receptor subtype. CHO cells (CHO-K1, Chinese hamster, ATCC no. CCL 61) are used [RH7777 cells (rat Morris hepatoma, ATCC no. CRL 1601) may also be used]. The membrane protein is prepared from wild-type cells and from different cell clones expressing the appropriate S1P receptor subtype. The assay technology used is SPA (scintillation proximity based assay). […] The luminescence of SPA beads triggered by membrane bound ^35S-GTPγS is quantified with a TOPcount plate reader (Packard). To evaluate the S1P receptor modulation, the stimulation (in %) compared to the baseline is calculated as the binding in the presence of the compound divided by the binding in the absence of a ligand, multiplied by 100. […] The selectivity of the compound towards the S1P receptor subtypes is determined by measuring for each of the different S1P receptor subtypes the level of ^35S-GTPγS binding in the presence of the compound using each of the different membrane proteins.

human S1P5 receptor = biological target: T2, human S1P5 receptor (Homo sapiens, UniProt Q9H228); assay: 35S-GTPγS binding assay (SPA), S1P5; conditions: membrane protein from transfected CHO cells; for EC50: read-out: EC50 for receptor subtype S1P5
T2 construct: expressed in transfected cells; host or cells: CHO-K1 (ATCC CCL 61); RH7777 may also be used
T2 sequence (Q9H228 whole entry): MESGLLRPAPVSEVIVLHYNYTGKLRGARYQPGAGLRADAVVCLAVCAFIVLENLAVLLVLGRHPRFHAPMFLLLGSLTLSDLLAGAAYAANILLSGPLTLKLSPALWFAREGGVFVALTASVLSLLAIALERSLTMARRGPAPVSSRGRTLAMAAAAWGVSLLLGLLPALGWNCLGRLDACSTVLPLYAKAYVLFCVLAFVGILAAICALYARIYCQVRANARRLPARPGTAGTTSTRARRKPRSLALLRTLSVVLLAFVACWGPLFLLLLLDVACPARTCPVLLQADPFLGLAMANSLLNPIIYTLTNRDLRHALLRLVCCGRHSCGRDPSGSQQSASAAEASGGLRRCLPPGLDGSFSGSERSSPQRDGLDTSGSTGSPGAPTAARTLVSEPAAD
Procedure: as §1
The S1P receptor modulating properties of an agent of the invention are tested on the human S1P1, S1P2, S1P3, S1P4 and S1P5, respectively, receptor subtypes. The functional receptor activation is assessed by quantifying the compound-induced ^35S-GTPγS binding to membrane protein prepared from transfected heterologous cells stably expressing the appropriate S1P receptor subtype. CHO cells (CHO-K1, Chinese hamster, ATCC no. CCL 61) are used [RH7777 cells (rat Morris hepatoma, ATCC no. CRL 1601) may also be used]. The membrane protein is prepared from wild-type cells and from different cell clones expressing the appropriate S1P receptor subtype. The assay technology used is SPA (scintillation proximity based assay). A DMSO solution of the test compound is serially diluted and added to SPA-bead (Amersham-Pharmacia) immobilised S1P receptor subtype expressing membrane protein (1 to 20 μg/well) in the presence of 50 mM HEPES, 100 mM NaCl, 10 mM MgCl2, 10 μM GDP, 0.1% fat free BSA and 0.2 nM ^35S-GTPγS (1200 Ci/mmol) (pH 7.4). After incubation in 96 well microtiter plates at room temperature for 120 minutes, the unbound ^35S-GTPγS is separated by centrifugation. The luminescence of SPA beads triggered by membrane bound ^35S-GTPγS is quantified with a TOPcount plate reader (Packard). To evaluate the S1P receptor modulation, the stimulation (in %) compared to the baseline is calculated as the binding in the presence of the compound divided by the binding in the absence of a ligand, multiplied by 100. Dose response curves are plotted using a non-linear regression curve fitting program, and the EC50 is defined as the concentration of the compound required to give 50% of its maximum stimulation. Preferably, the EC50 value of an agent of the invention in this test is 10′000 nM or less. The selectivity of the compound towards the S1P receptor subtypes is determined by measuring for each of the different S1P receptor subtypes the level of ^35S-GTPγS binding in the presence of the compound using each of the different membrane proteins.

human S1P4 receptor = biological target: T3, human S1P4 receptor (Homo sapiens, UniProt O95977); assay: 35S-GTPγS binding assay (SPA), S1P4; conditions: membrane protein from transfected CHO cells
T3 construct: expressed in transfected cells; host or cells: CHO-K1 (ATCC CCL 61); RH7777 may also be used
T3 sequence (O95977 1-384): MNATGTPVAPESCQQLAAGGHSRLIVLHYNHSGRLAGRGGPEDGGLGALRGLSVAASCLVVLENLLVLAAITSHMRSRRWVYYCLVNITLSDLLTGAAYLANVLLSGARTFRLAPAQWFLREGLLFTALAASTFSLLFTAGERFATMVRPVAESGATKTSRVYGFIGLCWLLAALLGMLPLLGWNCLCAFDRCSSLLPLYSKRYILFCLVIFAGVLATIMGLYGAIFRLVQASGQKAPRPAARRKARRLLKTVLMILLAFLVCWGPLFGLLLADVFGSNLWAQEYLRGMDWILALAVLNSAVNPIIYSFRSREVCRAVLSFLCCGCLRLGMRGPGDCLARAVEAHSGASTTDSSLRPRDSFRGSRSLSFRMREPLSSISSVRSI
Procedure: as §1, §2

T1 sequence (P21453 whole entry): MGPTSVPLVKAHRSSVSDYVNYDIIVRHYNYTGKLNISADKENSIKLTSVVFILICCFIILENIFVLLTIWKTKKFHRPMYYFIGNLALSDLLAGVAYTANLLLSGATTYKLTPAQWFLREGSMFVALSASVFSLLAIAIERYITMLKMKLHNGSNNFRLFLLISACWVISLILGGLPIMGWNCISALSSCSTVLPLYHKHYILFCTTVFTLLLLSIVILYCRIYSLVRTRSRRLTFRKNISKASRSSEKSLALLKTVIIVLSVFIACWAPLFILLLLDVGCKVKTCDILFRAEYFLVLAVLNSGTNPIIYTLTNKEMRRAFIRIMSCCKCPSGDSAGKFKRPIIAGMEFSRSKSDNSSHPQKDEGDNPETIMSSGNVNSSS

| efficacy at S1P1 (human S1P1 receptor) [%] | efficacy at S1P5 (human S1P5 receptor) [%] | EC50 (human S1P5 receptor) [µM] | efficacy at S1P4 (human S1P4 receptor) [%] | EC50 (human S1P4 receptor; read-out: EC50 for receptor subtype S1P4) [µM] | Compound |
| --- | --- | --- | --- | --- | --- |
| 73 | 81 | 0.027 | – | – | CCc1cc(F)cc(CC)c1Nc1cccc2c(C)n[nH]c(=O)c12 [Example 8, 8-(2,6-Diethyl-4-fluoro-phenylamino)-4-methyl-2H-phthalazin-1-one] |
| 58 | 80 | 0.117 | 74 | 0.929 | Cc1cc(F)cc(C)c1Nc1cccc2c(C)n[nH]c(=O)c12 [Example 4, 8-(4-Fluoro-2,6-dimethyl-phenylamino)-4-methyl-2H-phthalazin-1-one] |
